ChEMBL document CHEMBL3822420, “New peptide deformylase inhibitors design, synthesis and pharmacokinetic assessment” (Bioorg Med Chem Lett, 2016)
≈ marks a conversion by molar mass, not a printed value.

Assays:
[1] = AUC (0 to t) in Sprague-Dawley rat at 2 mg/kg, iv; type: ADME, organism-based; details: Sprague-Dawley, in vivo
[2] = Tmax in Sprague-Dawley rat at 2 mg/kg, iv; type: ADME, organism-based; details: in vivo
[3] = Tmax in Sprague-Dawley rat at 10 mg/kg, po; type: ADME, organism-based; details: in vivo
[4] = Cmax in Sprague-Dawley rat at 2 mg/kg, iv; type: ADME, organism-based; set-up: dose 2 mg/kg, route intravenous; details: in vivo
[5] = Cmax in Sprague-Dawley rat at 10 mg/kg, po; type: ADME, organism-based; set-up: dose 10 mg/kg, route oral; details: in vivo
Staphylococcus aureus [6] = test: Antibacterial activity against methicillin-resistant Staphylococcus aureus 14-1; type: functional
Staphylococcus aureus [7] = test: Antibacterial activity against methicillin-resistant Staphylococcus aureus 14-2; type: functional
Staphylococcus aureus [8] = test: Antibacterial activity against methicillin-resistant Staphylococcus aureus 14-4; type: functional
Staphylococcus aureus [9] = test: Antibacterial activity against methicillin-resistant Staphylococcus aureus 14-5; type: functional
Staphylococcus aureus [10] = test: Antibacterial activity against methicillin-sensitive Staphylococcus aureus 14-1; type: functional
Staphylococcus aureus [11] = test: Antibacterial activity against methicillin-sensitive Staphylococcus aureus 14-2; type: functional
Staphylococcus aureus [12] = test: Antibacterial activity against methicillin-sensitive Staphylococcus aureus 14-3; type: functional
Staphylococcus aureus [13] = test: Antibacterial activity against methicillin-sensitive Staphylococcus aureus 14-4; type: functional
[14] = test system: Staphylococcus epidermidis; test: Antibacterial activity against methicillin-resistant Staphylococcus epidermidis 14-1; type: functional
[15] = test system: Staphylococcus epidermidis; test: Antibacterial activity against methicillin-resistant Staphylococcus epidermidis 14-2; type: functional
[16] = test system: Staphylococcus epidermidis; test: Antibacterial activity against methicillin-resistant Staphylococcus epidermidis 14-3; type: functional
[17] = test system: Staphylococcus epidermidis; test: Antibacterial activity against methicillin-resistant Staphylococcus epidermidis 14-4; type: functional
[18] = test system: Staphylococcus epidermidis; test: Antibacterial activity against methicillin-sensitive Staphylococcus epidermidis 14-1; type: functional
[19] = test system: Staphylococcus epidermidis; test: Antibacterial activity against methicillin-sensitive Staphylococcus epidermidis 14-2; type: functional
[20] = test system: Staphylococcus epidermidis; test: Antibacterial activity against methicillin-sensitive Staphylococcus epidermidis 14-3; type: functional
Enterococcus faecalis [21] = test: Antibacterial activity against Enterococcus faecalis 14-1; type: functional
Enterococcus faecalis [22] = test: Antibacterial activity against Enterococcus faecalis 14-2; type: functional
Enterococcus faecalis [23] = test: Antibacterial activity against Enterococcus faecalis 14-3; type: functional
Enterococcus faecalis [24] = test: Antibacterial activity against Enterococcus faecalis 14-5; type: functional
Escherichia coli [25] = test: Antibacterial activity against Escherichia coli 14-1; type: functional
Escherichia coli [26] = test: Antibacterial activity against Escherichia coli 14-2; type: functional
Escherichia coli [27] = test: Antibacterial activity against Escherichia coli 14-1 expressing extended-spectrum beta-lactamase; type: functional
Escherichia coli [28] = test: Antibacterial activity against Escherichia coli 14-2 expressing extended-spectrum beta-lactamase; type: functional
[29] = AUC (0 to t) in Sprague-Dawley rat at 10 mg/kg, po; type: ADME, organism-based; details: in vivo
[30] = AUC (0 to infinity) in Sprague-Dawley rat at 2 mg/kg, iv; type: ADME, organism-based; set-up: dose 2 mg/kg, route intravenous, time infinity; details: Sprague-Dawley, in vivo
[31] = (§1) AUC (0 to infinity) in Sprague-Dawley rat at 10 mg/kg, po; type: ADME, organism-based; set-up: dose 10 mg/kg, time infinity, route oral; details: Sprague-Dawley, in vivo
[32] = Half life in Sprague-Dawley rat at 2 mg/kg, iv; type: ADME, organism-based; details: in vivo
[33] = (§2) Half life in Sprague-Dawley rat at 10 mg/kg, po; type: ADME, organism-based; details: Sprague-Dawley, in vivo
[34] = MRT (0 to t) in Sprague-Dawley rat at 2 mg/kg, iv; type: ADME, organism-based; details: in vivo
[35] = MRT (0 to t) in Sprague-Dawley rat at 10 mg/kg, po; type: ADME, organism-based; details: in vivo
[36] = Clearance in Sprague-Dawley rat at 2 mg/kg, iv; type: ADME, organism-based; details: in vivo
[37] = (§3) Clearance in Sprague-Dawley rat at 10 mg/kg, po; type: ADME, organism-based; details: Sprague-Dawley, in vivo
[38] = Volume of distribution at steady state in Sprague-Dawley rat at 2 mg/kg, iv; type: ADME, organism-based; details: in vivo, read-out: Vdss
Rattus norvegicus [39] = test: Volume of distribution at steady state in Sprague-Dawley rat at 10 mg/kg, po; type: ADME, organism-based; details: in vivo
[40] = Oral bioavailability in Sprague-Dawley rat at 10 mg/kg; type: ADME, organism-based; details: in vivo
Rattus norvegicus [41] = test: as §1; type: ADME, organism-based; set-up: dose 10 mg/kg, time infinity, route oral; details: in vivo
Rattus norvegicus [42] = test: as §2; type: ADME, organism-based; details: in vivo
Rattus norvegicus [43] = test: as §3; type: ADME, organism-based; details: in vivo

Structure (SMILES) | AUC(0-t) [1] [ng·h/mL] | Tmax [2] [min] | Tmax [3] [h] | Cmax [4] [ng/mL] | Cmax [5] [ng/mL] | MIC (Staphylococcus aureus [6]) [µg/mL] | MIC (Staphylococcus aureus [7]) [µg/mL] | MIC (Staphylococcus aureus [8]) [µg/mL] | MIC (Staphylococcus aureus [9]) [µg/mL] | MIC (Staphylococcus aureus [10]) [µg/mL] | MIC (Staphylococcus aureus [11]) [µg/mL] | MIC (Staphylococcus aureus [12]) [µg/mL] | MIC (Staphylococcus aureus [13]) [µg/mL] | MIC [14] [µg/mL] | MIC [17] [µg/mL] | MIC [18] [µg/mL] | MIC [19] [µg/mL] | MIC [20] [µg/mL] | MIC (Enterococcus faecalis [21]) [µg/mL] | MIC (Enterococcus faecalis [22]) [µg/mL] | also measured
CCCC[C@H](CN(O)C=O)C(=O)N1CC2(CC2)C[C@H]1c1nc2ccccc2[nH]1 | 1260 | 4.8 | 0.25 | 1740 | 1680 | 1 (≈ 2.6 µM) | 2 (≈ 5.2 µM) | 2 (≈ 5.2 µM) | 0.5 (≈ 1.3 µM) | 2 (≈ 5.2 µM) | 2 (≈ 5.2 µM) | 2 (≈ 5.2 µM) | 2 (≈ 5.2 µM) | 1 (≈ 2.6 µM) | 1 (≈ 2.6 µM) | 0.5 (≈ 1.3 µM) | 2 (≈ 5.2 µM) | 0.5 (≈ 1.3 µM) | 8 (≈ 20.8 µM) | 8 (≈ 20.8 µM) | MIC [15]: 1 µg/mL (≈ 2.6 µM); MIC [16]: 0.5 µg/mL (≈ 1.3 µM); MIC (Enterococcus faecalis [23]): 8 µg/mL (≈ 20.8 µM); MIC (Enterococcus faecalis [24]): 64 µg/mL (≈ 166 µM); MIC (Escherichia coli [25]): 32 µg/mL (≈ 83.2 µM); MIC (Escherichia coli [26]): 32 µg/mL (≈ 83.2 µM); MIC (Escherichia coli [27]): 0.5 µg/mL (≈ 1.3 µM); MIC (Escherichia coli [28]): 32 µg/mL (≈ 83.2 µM); AUC(0-t) [29]: 2340 ng·h/mL; AUC(0-inf) [30]: 1270 ng·h/mL; AUC(0-inf) [31]: 2380 ng·h/mL; half-life [32]: 5.23 h; half-life [33]: 4.46 h; MRT last [34]: 1.91 h; MRT last [35]: 4.13 h; clearance [36]: 26.4 mL/min/kg; CL/F [37]: 70.9 mL/min/kg; Vd [38]: 3 L/kg; Vdss (Rattus norvegicus [39]): 27.4 L/kg; bioavailability [40]: 37%
CCCC[C@H](CN(O)C=O)C(=O)N1CC2(CC2)C[C@H]1C(=O)Nc1cc(C(C)(C)C)on1 | 1140 | 4.8 | 0.58 | 930 | 860 | 0.06 (≈ 0.138 µM) | 0.06 (≈ 0.138 µM) | < 0.008 | 0.06 (≈ 0.138 µM) | 0.125 (≈ 0.288 µM) | 0.125 (≈ 0.288 µM) | 0.25 (≈ 0.575 µM) | 0.06 (≈ 0.138 µM) | 0.03 (≈ 0.069 µM) | 0.03 (≈ 0.069 µM) | 0.03 (≈ 0.069 µM) | 0.125 (≈ 0.288 µM) | 0.015 (≈ 0.0345 µM) | 0.5 (≈ 1.15 µM) | 0.5 (≈ 1.15 µM) | MIC [15]: 0.03 µg/mL (≈ 0.069 µM); MIC [16]: 0.015 µg/mL (≈ 0.0345 µM); MIC (Enterococcus faecalis [23]): 0.5 µg/mL (≈ 1.15 µM); MIC (Enterococcus faecalis [24]): > 128 µg/mL; MIC (Escherichia coli [25]): 64 µg/mL (≈ 147 µM); MIC (Escherichia coli [26]): 64 µg/mL (≈ 147 µM); MIC (Escherichia coli [27]): 1 µg/mL (≈ 2.3 µM); MIC (Escherichia coli [28]): 64 µg/mL (≈ 147 µM); AUC(0-t) [29]: 1950 ng·h/mL; AUC(0-inf) [30]: 1140 ng·h/mL; AUC(0-inf) [31]: 1980 ng·h/mL; half-life [32]: 1.23 h; half-life [33]: 4.52 h; MRT last [34]: 1.5 h; MRT last [35]: 3.43 h; clearance [36]: 29.6 mL/min/kg; CL/F [37]: 90.6 mL/min/kg; Vd [38]: 2.7 L/kg; Vdss (Rattus norvegicus [39]): 36.2 L/kg; bioavailability [40]: 35%
CCCC[C@H](CN(O)C=O)C(=O)N1CC2(CC2)C[C@H]1C(=O)Nc1ccc(C)c(Nc2nccc(-c3cccnc3)n2)c1 | 881 | 4.8 | 0.25 | 1080 | 100 | 0.015 (≈ 0.0262 µM) | 0.015 (≈ 0.0262 µM) | < 0.008 | < 0.008 | 0.015 (≈ 0.0262 µM) | 0.015 (≈ 0.0262 µM) | 0.015 (≈ 0.0262 µM) | 0.015 (≈ 0.0262 µM) | < 0.008 | < 0.008 | 0.015 (≈ 0.0262 µM) | < 0.008 | < 0.008 | 0.03 (≈ 0.0525 µM) | 0.015 (≈ 0.0262 µM) | MIC (Enterococcus faecalis [23]): 0.03 µg/mL (≈ 0.0525 µM); MIC (Enterococcus faecalis [24]): > 128 µg/mL; MIC (Escherichia coli [25]): > 128 µg/mL; MIC (Escherichia coli [26]): > 128 µg/mL; MIC (Escherichia coli [27]): 4 µg/mL (≈ 7 µM); MIC (Escherichia coli [28]): > 128 µg/mL; AUC(0-t) [29]: 126 ng·h/mL; AUC(0-inf) [30]: 892 ng·h/mL; AUC (Rattus norvegicus [41]): 134 ng·h/mL; half-life [32]: 3.6 h; t1/2 (Rattus norvegicus [42]): 2.24 h; MRT last [34]: 1.15 h; MRT last [35]: 3.32 h; clearance [36]: 37.7 mL/min/kg; CL (Rattus norvegicus [43]): 5.57 mL/min/kg; Vd [38]: 2.6 L/kg; Vdss (Rattus norvegicus [39]): 1772 L/kg; bioavailability [40]: 3%
